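Following 48 hours of exposure in 96-well plates, responses at five concentrations were used to interpolate endpoints linearly. GI50 is the concentration that inhibits growth by half.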 Activity calls are given as the source filed them. Rule as the data show it: active = GI50 up to about 1.1 µM and inactive = higher.
Key:
Experiment in all cases: NCI anticancer screen, dose series, 48 h
M14 = test system: M14
OVCAR-3 = test system: OVCAR-3
NCI-H226 = test system: NCI-H226
A498 = test system: A498
TK-10 = test system: TK-10
SK-OV-3 = test system: SK-OV-3
A549 = test system: A549
K562 = test system: K562
DMS-273 = test system: DMS-273
HL-60 = test system: HL-60
SF-539 = test system: SF-539
RXF 393 = test system: RXF 393
OVCAR-8 = test system: OVCAR-8
COLO 205 = test system: COLO 205

Measured: GI50

Cc1cccc(-n2c(N)c(-c3nc4ccccc4[nH]3)sc2=S)c1
inactive: M14 25.3 µM | OVCAR-3 25 µM | NCI-H226 32.7 µM | A498 89.3 µM | TK-10 29.5 µM | SK-OV-3 47.9 µM | A549 28.2 µM | K562 29.2 µM | DMS-273 20.1 µM | HL-60 26.5 µM | SF-539 20.4 µM | RXF 393 33.3 µM | OVCAR-8 28.4 µM | COLO 205 23.8 µM

CC12CC(=O)NN=C1c1ccccc1C2 (configuration not stated)
inactive: M14 > 100 µM | OVCAR-3 > 100 µM | NCI-H226 > 100 µM | A498 > 100 µM | TK-10 > 100 µM | SK-OV-3 > 100 µM | A549 > 100 µM | K562 > 100 µM | DMS-273 > 100 µM | HL-60 > 100 µM | SF-539 > 100 µM | RXF 393 > 100 µM | OVCAR-8 > 100 µM | COLO 205 > 100 µM

CNC(=O)OCc1nc([S+](C)[O-])n(C)c1COC(=O)NC (configuration not stated)
inactive: M14 > 29.1 µM | OVCAR-3 > 100 µM | NCI-H226 > 100 µM | A498 38.7 µM | TK-10 > 100 µM | SK-OV-3 > 44.1 µM | A549 > 46.5 µM | K562 > 100 µM | DMS-273 > 100 µM | HL-60 > 100 µM | SF-539 > 100 µM | RXF 393 > 100 µM | OVCAR-8 > 100 µM | COLO 205 > 41.8 µM

CCOC(=O)Cn1c(=O)[nH]c(=O)c2c1ncn2Cc1ccccc1
inactive: M14 > 100 µM | OVCAR-3 > 100 µM | NCI-H226 > 100 µM | A498 > 100 µM | TK-10 > 100 µM | SK-OV-3 > 100 µM | A549 > 100 µM | K562 > 100 µM | DMS-273 > 100 µM | HL-60 > 100 µM | SF-539 > 100 µM | RXF 393 > 100 µM | OVCAR-8 > 100 µM | COLO 205 > 100 µM

CC1OC(n2cc(F)c(=O)[nH]c2=O)C=CC1O (configuration not stated)
inactive: M14 > 100 µM | OVCAR-3 > 100 µM | NCI-H226 > 100 µM | A498 > 100 µM | TK-10 > 100 µM | SK-OV-3 > 100 µM | A549 > 100 µM | K562 > 57.8 µM | DMS-273 > 100 µM | HL-60 37.2 µM | SF-539 > 100 µM | RXF 393 > 100 µM | OVCAR-8 > 100 µM | COLO 205 > 100 µM

O=[N+]([O-])c1ccc(C2=Nn3c(nnc3-c3ccccc3)SC2)o1
inactive: M14 17.6 µM | OVCAR-3 17.3 µM | NCI-H226 58.6 µM | A498 > 100 µM | TK-10 19.6 µM | SK-OV-3 > 100 µM | A549 35.2 µM | K562 20.4 µM | DMS-273 20 µM | HL-60 15.3 µM | SF-539 18.8 µM | RXF 393 19.3 µM | OVCAR-8 19.3 µM | COLO 205 21.4 µM

C[N+]1(C)C[C@@H](O)C[C@@H]1C(=O)[O-] [BETONICINE]
inactive: M14 > 100 µM | OVCAR-3 > 100 µM | NCI-H226 > 100 µM | A498 > 100 µM | TK-10 > 100 µM | SK-OV-3 > 100 µM | A549 > 100 µM | K562 > 100 µM | DMS-273 > 100 µM | HL-60 > 100 µM | SF-539 > 100 µM | RXF 393 > 100 µM | OVCAR-8 > 100 µM | COLO 205 > 100 µM

COc1ccc(-c2c3ccccc3c(-c3ccc(OC)cc3)c3ccccc23)cc1
inactive: M14 > 100 µM | OVCAR-3 > 100 µM | NCI-H226 > 100 µM | A498 > 100 µM | TK-10 > 100 µM | SK-OV-3 > 100 µM | A549 > 100 µM | K562 > 100 µM | DMS-273 > 100 µM | HL-60 > 100 µM | SF-539 > 100 µM | RXF 393 > 100 µM | OVCAR-8 > 100 µM | COLO 205 > 100 µM

— ChEMBL document CHEMBL1201862, “PubChem BioAssay data set” (2004)
